In ChEMBL document CHEMBL4130368, “Thienopyrimidine derivatives exert their anticancer efficacy via apoptosis induction, oxidative stress and mitotic catastrophe” (Eur J Med Chem, 2017):
Activity calls are given as the source filed them. The rule behind the calls is not given here.

What was measured:
HCT-116 [1] = test: Induction of apoptosis in human HCT116 cells assessed as necrotic cells at 1 uM measured after overnight incubation by mitotracker red/alexa fluor-488 Annexin V staining-based flow cytometry (reference value: 2.67%); format: functional
A2780 [2] = test: Induction of apoptosis in human A2780 cells assessed as necrotic cells at 2 uM measured after overnight incubation by mitotracker red/alexa fluor-488 Annexin V staining-based flow cytometry (reference value: 9.94%); format: functional
A2780 [3] = test: Induction of cellular oxidative stress in human A2780 cells assessed as increase in ROS levels at 0.5 to 4 uM after 48 hrs by DCFDA dye-based fluorescence microscopic method; format: functional, cell-based
HCT-116 [4] = test: Cell cycle arrest in human HCT116 cells assessed as accumulation at subG1 phase at 2 uM measured after overnight incubation by propidium iodide staining-based flow cytometry (reference value: 0.154%); format: functional
2008 [5] = test: Induction of apoptosis in human OV2008 cells assessed as early apoptotic cells at 2 uM measured after overnight incubation by mitotracker red/alexa fluor-488 Annexin V staining-based flow cytometry (reference value: 12.9%); format: functional
2008 [6] = test: Cell cycle arrest in human OV2008 cells assessed as accumulation at G1 phase at 1 uM measured after overnight incubation by propidium iodide staining-based flow cytometry (reference value: 52.6%); format: functional
HCT-116 [7] = test: Induction of apoptosis in human HCT116 cells assessed as early apoptotic cells at 1 uM measured after overnight incubation by mitotracker red/alexa fluor-488 Annexin V staining-based flow cytometry (reference value: 8.36%); format: functional
2008 [8] = test: Cell cycle arrest in human OV2008 cells assessed as accumulation at S phase at 2 uM measured after overnight incubation by propidium iodide staining-based flow cytometry (reference value: 10.8%); format: functional
HCT-15 = test: Antiproliferative activity against human HCT15 cells after 72 hrs by MTT assay; format: functional, cell-based; details: HCT-15, 72 h
HCT-116 [9] = test: Antiproliferative activity against bax deficient human HCT116 cells assessed after 72 hrs by MTT assay; format: functional, cell-based; details: HCT-116, 72 h
A2780 [10] = test: Cell cycle arrest in human A2780 cells assessed as accumulation at S phase at 2 uM measured after overnight incubation by propidium iodide staining-based flow cytometry (reference value: 15.2%); format: functional
LN-229 = test: Antiproliferative activity against human LN229 cells after 72 hrs by MTT assay; format: functional, cell-based; details: LN-229, 72 h
A2780 [11] = test: Induction of apoptosis in human A2780 cells assessed as late apoptotic cells at 2 uM measured after overnight incubation by mitotracker red/alexa fluor-488 Annexin V staining-based flow cytometry (reference value: 0.015%); format: functional
HCT-116 [12] = test: Antiproliferative activity against dko deficient human HCT116 cells after 72 hrs by MTT assay; format: functional, cell-based; details: HCT-116, 72 h
2008 [13] = test: Cell cycle arrest in human OV2008 cells assessed as accumulation at G2 phase at 2 uM measured after overnight incubation by propidium iodide staining-based flow cytometry (reference value: 26.9%); format: functional
HCT-116 [14] = test: Cell cycle arrest in human HCT116 cells assessed as accumulation at G1 phase at 1 uM measured after overnight incubation by propidium iodide staining-based flow cytometry (reference value: 63.5%); format: functional
HCT-116 [15] = test: Induction of apoptosis in human HCT116 cells assessed as necrotic cells at 2 uM measured after overnight incubation by mitotracker red/alexa fluor-488 Annexin V staining-based flow cytometry (reference value: 2.67%); format: functional
2008 [16] = test: Cell cycle arrest in human OV2008 cells assessed as accumulation at subG1 phase at 2 uM measured after overnight incubation by propidium iodide staining-based flow cytometry (reference value: 2.64%); format: functional
HCT-116 [17] = test: Induction of apoptosis in human HCT116 cells assessed as condensation of nuclei at 0.5 to 2 uM measured after overnight incubation by DAPI-staining based microscopy; format: functional, cell-based
A2780 [18] = test: Cell cycle arrest in human A2780 cells assessed as accumulation at subG1 phase at 1 uM measured after overnight incubation by propidium iodide staining-based flow cytometry (reference value: 8.88%); format: functional
2008 [19] = test: Induction of morphological changes in human OV2008 cells at 0.1 to 3 uM after 68 hrs by microscopic method; format: functional, cell-based
HCT-116 [20] = test: Cell cycle arrest in human HCT116 cells assessed as accumulation at subG1 phase at 1 uM measured after overnight incubation by propidium iodide staining-based flow cytometry (reference value: 0.154%); format: functional
2008 [21] = test: Induction of apoptosis in human OV2008 cells assessed as viable cells at 1 uM measured after overnight incubation by mitotracker red/alexa fluor-488 Annexin V staining-based flow cytometry (reference value: 80.5%); format: functional; details: read-out: Activity
A2780 [22] = test: Induction of apoptosis in human A2780 cells assessed as condensation of nuclei at 0.5 to 2 uM measured after overnight incubation by DAPI-staining based microscopy; format: functional, cell-based
2008 [23] = test: Induction of apoptosis in human OV2008 cells assessed as necrotic cells at 1 uM measured after overnight incubation by mitotracker red/alexa fluor-488 Annexin V staining-based flow cytometry (reference value: 6.31%); format: functional
HCT-116 [24] = test: Inhibition of colony formation in human HCT116 cells at 1 to 2 uM after 24 hrs by crystal violet dye based assay; format: functional, cell-based
A2780 [25] = test: Cell cycle arrest in human A2780 cells assessed as accumulation at subG1 phase at 2 uM measured after overnight incubation by propidium iodide staining-based flow cytometry (reference value: 8.88%); format: functional
A2780 [26] = test: Induction of apoptosis in human A2780 cells assessed as late apoptotic cells at 1 uM measured after overnight incubation by mitotracker red/alexa fluor-488 Annexin V staining-based flow cytometry (reference value: 0.015%); format: functional
HCT-116 [27] = test: Antiproliferative activity against human HCT116 cells after 72 hrs by MTT assay; format: functional, cell-based; details: HCT-116, 72 h
A2780 [28] = test: Cell cycle arrest in human A2780 cells assessed as accumulation at G2 phase at 2 uM measured after overnight incubation by propidium iodide staining-based flow cytometry (reference value: 24.9%); format: functional
2008 [29] = test: Cell cycle arrest in human OV2008 cells assessed as accumulation at G2 phase at 1 uM measured after overnight incubation by propidium iodide staining-based flow cytometry (reference value: 26.9%); format: functional
[30] = Selectivity index, ratio of IC50 for CHO cells to IC50 for human HCT116 cells; format: toxicity; details: Chinese hamster (CHO cells), CHO cells versus HCT116 cells, read-out: Ratio IC50
A2780 [31] = test: Induction of apoptosis in human A2780 cells assessed as necrotic cells at 1 uM measured after overnight incubation by mitotracker red/alexa fluor-488 Annexin V staining-based flow cytometry (reference value: 9.94%); format: functional
2008 [32] = test: Induction of apoptosis in human OV2008 cells assessed as condensation of nuclei at 0.5 to 2 uM measured after overnight incubation by DAPI-staining based microscopy; format: functional, cell-based
2008 [33] = test: Induction of apoptosis in human OV2008 cells assessed as necrotic cells at 2 uM measured after overnight incubation by mitotracker red/alexa fluor-488 Annexin V staining-based flow cytometry (reference value: 6.31%); format: functional
HCT-116 [34] = test: Cell cycle arrest in human HCT116 cells assessed as accumulation at […] at 2 uM measured after overnight incubation by propidium iodide staining-based flow cytometry (reference value: 9.70%); format: functional

IC50 (HCT-15): 0.7 µM
IC50 (HCT-116 [9]): 1.2 µM
IC50 (HCT-116 [12]): 1.4 µM
IC50 (HCT-116 [27]): 0.6 µM
SMILES: COc1ccc(-c2nc(O)c3c4c(sc3n2)CCCC4)cc1
Activity (HCT-116 [1]): 1.48%
Activity (A2780 [2]): 5.77%
Activity (A2780 [3]): Active
Activity (HCT-116 [4]): 0.097%
Activity 2008 [5]: 22.2%
Activity 2008 [6]: 19.5%
Activity (HCT-116 [7]): 11.6%
Activity 2008 [8]: 31.8%
Activity (A2780 [10]): 9.02%
IC50 (LN-229): 0.5 µM
Activity (A2780 [11]): 0.051%
Activity 2008 [13]: 41.1%
Activity (HCT-116 [14]): 37.5%
Activity (HCT-116 [15]): 3.04%
Activity 2008 [16]: 1.29%
Activity (HCT-116 [17]): Active
Activity (A2780 [18]): 7.99%
Activity 2008 [19]: Active
Activity (HCT-116 [20]): 0.087%
viability at 1 µM 2008 [21]: 75.1%
Activity (A2780 [22]): Active
Activity 2008 [23]: 4.31%
inhibition (HCT-116 [24]): Dose-dependent effect
Activity (A2780 [25]): 7.54%
Activity (A2780 [26]): 0%
Activity (A2780 [28]): 63.5%
Activity 2008 [29]: 44.6%
selectivity ratio [30]: 17 to 28
Activity (A2780 [31]): 0.421%
Activity 2008 [32]: Active
Activity 2008 [33]: 3.79%
Activity (HCT-116 [34]): 10.6%
